Measurements: PubChem BioAssay AID179 (DTP/NCI, 2004)
pEC50, pIC50: −log10 of the molar value. Calls of active or inactive are those of the source.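 Rule for the calls: active = compounds giving half or more protection of infected cells from virus-caused growth loss, again on retest; inactive = the rest.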 Where a SMILES comes first, the peptide text is derived from it. [ ]: non-standard residue; d: D form. The star is where a group is joined. Phe(4-NO2) = N[CH](Cc1ccc([N+](=O)[O-])cc1)C(=O)O; Boc = CC(C)(C)OC(=O)*; OtBu = CC(C)(C)O*

Tested on: CEM cells HIV-1 protection, formazan growth assay
Assay: NCI AIDS Antiviral Assay
Conditions: for pIC50: measured here: growth of uninfected CEM cells
Method in brief: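 Human CEM cells, uninfected and HIV-1-infected, received five drug concentrations, and growth was read by soluble formazan assay. Compounds giving at least 50% protection were retested; reproducible 100% protection defined confirmed active.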

Row | Structure (SMILES) | pEC50 | pIC50 | outcome
1 | O=C1O/C(=C(/Br)c2ccc(Cl)c(Cl)c2)c2ccccc21 | < 3.70 | 4.93 | 
2 | COc1ccc(C(O)C(=O)c2nc3ccc([N+](=O)[O-])cc3[nH]c2=O)cc1 (stereo not given) | 3.97 | 3.89 | 
3 | CSC1=N/C(=C\c2ccc(C)cc2)C(=O)N1CN1CCOCC1 | < 3.70 | 4.46 | 
4 | COc1ccccc1-c1cc(=O)c2cc(C)c(C)c(C(=O)O)c2o1 |  |  | inactive
5 | O=C1CC2(Cl)CN3c4ccccc4C(=O)CC3(Cl)CN2c2ccccc21 (stereo not given) | < 4.24 | < 4.24 | 
6 | CC[C@@]1(C(=O)OC)C=CCN2C(=O)OC(C)(C)C21 (stereo not given in full) |  |  | inactive
7 | COC1C(=O)CCC2(CO2)C1(O)C1(C)OC1CC=C(C)C (stereo not given) | < 3.70 | 5.54 | 
8 | O=C(O)c1ccc([C@@H]2C(=O)N(O)[C@@H]3C=CC[C@@H]32)cc1 | < 3.46 | < 3.46 | 
9 | CCCc1cc(=O)oc2c3c(c4c(c12)OC(C)(C)CC4)O[C@H](C)[C@@H](C)[C@H]3O | < 3.70 | 4.97 | 
10 | CC(C)c1cccc2sc(NC(=O)C(=O)CC(=O)c3ccc(F)cc3)nc12 |  |  | inactive
11 | CNC(=O)C(C(=O)NC)n1cnc(C(=O)OC)c1O | < 3.70 | < 3.70 | 
12 | CCSc1nnc(CSc2nc(-c3ccccc3)c(-c3ccccc3)[nH]2)n1-c1ccccc1 | < 4.67 | < 4.67 | 
13 | Cc1nnc(-n2c(O)cc(=O)n(-c3ccccc3)c2=S)nc1/C=C/c1ccc(N(C)C)cc1 | < 4.00 | 5.25 | 
14 | CCOC(=O)Oc1ccc2[nH]c3c(C)cc(N)c(C)c3c2c1 | < 4.03 | 4.40 | 
15 | CCOC(=O)/C=C1/Nc2cc(F)c(F)cc2NC1=O | < 3.70 | < 3.70 | 
16 | CC(C)OC1OC(CO)C(O)CC1n1cc(F)c(=O)[nH]c1=O (stereo not given) | < 3.70 | 4.61 | 
17 | CN(C)c1ccc(/C=C(/C(=O)c2ccccc2)c2ccccc2)cc1 | < 4.80 | < 4.80 | 
18 | Cc1nn2c(N)cc(=O)nc2nc1/C=C/c1ccc(N(C)C)cc1 | < 3.70 | 5.37 | 
19 | COc1ccc(CC#N)c(OCc2ccccc2)c1 | < 4.27 | 4.75 | 
20 | CP(=O)(O)C(N)Cc1c[nH]c2ccccc12 (stereo not given) | < 4.00 | < 4.00 | 
21 | COc1ccc(C23C(=O)c4ccccc4N2O[C@H]2C(=O)N(c4ccccc4)C(=O)[C@H]23)cc1 (stereo not given in full) | < 4.50 | < 4.50 | 

Row | Structure (SMILES) | pEC50 | pIC50 | outcome
22 | CCOC(=O)c1ccc(-c2ccc(Cl)cc2)[nH]1 | < 3.70 | 4.35 | 
23 | CC(=O)O[C@H]1CSC[C@@H](OC(C)=O)C1[N+](=O)[O-] (stereo not given in full) | < 3.16 | 4.48 | 
24 | O=C(O)[C@@H]1C2C3CC4C2C4C3[C@@H]1C(=O)O |  |  | inactive
25 | CCOc1ccc(NC(=S)N/C=C(/C#N)C(N)=O)cc1 | < 3.70 | 3.80 | 
26 | Nc1c(C(=O)O)nnc2cc(Cl)c(Cl)cc12 | < 3.70 | < 3.70 | 
27 | C=C(C)C(=Nc1ccc(Cl)c(Cl)c1)N(C)C |  |  | inactive
28 | O=[N+]([O-])c1ccc(NC(c2ccccc2)P(=O)(Oc2ccccc2)Oc2ccccc2)cc1 (stereo not given) | < 5.23 | < 5.23 | 
29 | CC/C(Br)=C1\CC2c3c(c4ccccc4n3C)CC(C1=O)N2Cc1ccccc1 (stereo not given) |  |  | inactive
30 | O=[N+]([O-])c1ccc(Cl)cc1N/N=C/c1cccs1 | < 3.70 | < 4.00 | 
31 | CC(=O)NC(CCC(=O)OC(C)(C)C)C(=O)NC(CCC(=O)OC(C)(C)C)C(=O)NC(Cc1ccc([N+](=O)[O-])cc1)C(=O)NC(CCCCNC(=O)OC(C)(C)C)C(=O)NC(CCCCNC(=O)OC(C)(C)C)C(=O)NCC(=O)O (stereo not given) (Ac-E(OtBu)E(OtBu)[Phe(4-NO2)]K(Boc)K(Boc)G-OH; configuration not given here) | < 3.70 | < 3.70 | 
32 | Clc1ccc(C2SCc3nc4ccccc4n32)c(Cl)c1 (stereo not given) |  |  | inactive
33 | CCOC(=N)N1CCCCC1 | < 3.70 | < 3.70 | 
34 | CN(C)/N=C1\C=C2CC[C@H](O[Si](C)(C)C(C)(C)C)[C@@]2(C)CC1 | < 3.70 | 4.91 | 
35 | O=C(CN1CCCCC1)Nc1ccc2c(c1)C1Oc3ccccc3CC1CO2 (stereo not given) |  |  | inactive
36 | C[C@H](O)CCC(=O)c1ccoc1 | < 2.83 | < 2.83 | 
37 | CSCCC(NC(=O)OCc1ccccc1)NC(=O)OCc1ccccc1 | < 3.70 | < 3.70 | 
38 | C/C(=N\NC(=S)N(C)C)c1cccnn1 | < 3.70 | 6.45 | 
39 | O=C1/C(=C\c2ccc(Cl)cc2Cl)Sc2scc(-c3cccc([N+](=O)[O-])c3)[n+]21 |  |  | inactive
40 | S=C1N(c2ccc(Cl)cc2)C2=C(N=Nc3ccccc3Cl)C(=Nc3ccccc3S2)N1c1ccccn1 | < 4.33 | 4.66 | 
41 | COC(=O)/C(C#N)=C(/NCCN)Nc1ccccc1 | < 3.70 | < 3.70 | 
42 | C=CCONC(=O)c1ccc(Cl)cc1 | < 3.21 | 3.28 | 

Row | Structure (SMILES) | pEC50 | pIC50 | outcome
43 | CC(C)N=C(N)CSS(=O)(=O)O | < 3.70 | < 3.70 | 
44 | C[C@]12CC[C@H]3[C@@H](CCC4=C/C(=N/OCCN5CCCCC5)CC[C@@]43C)[C@@H]1CC[C@@H]2O | < 3.70 | 5.38 | 
45 | O=C1NC2C(O)CCCCC2C12CCCCC2 (stereo not given) |  |  | inactive
46 | C1CSCCSCCCSCCSCCCSCCSC1 | < 3.70 | < 3.70 | 
47 | C1CCCCC2(CCCCCCCCC3(CCC1)SCCS3)SCCS2 | < 3.70 | < 3.70 | 
48 | Cc1cc2c(O)c(c1)CN(CC(=O)O)Cc1cc(C)cc(c1O)CN(CC(=O)O)Cc1cc(C)cc(c1O)CN(CC(=O)O)C2 | < 3.70 | < 3.70 | 
49 | O=C(/C=C/c1ccc(Br)cc1)c1ccc(NCc2nc3ccccc3[nH]2)cc1 | < 4.78 | 4.94 | 
50 | Nc1nc(Cl)c(N)c(NCC2(CO)CC(OCc3ccccc3)C2)n1 (stereo not given) | < 4.70 | 5.67 | 
51 | NC(=O)NN=C1C[C@H]2CCCC[C@H]2C1 |  |  | inactive
52 | [N-]=[N+]=CC(=O)OC1CCc2ccccc21 (stereo not given) | < 3.70 | < 3.70 | 
53 | N=C1N(c2ccccc2)C(=S)C(=Nc2ccccc2)N1c1ccccc1 | < 3.70 | 5.41 | 
54 | CCCN=C(N)C(C)=O | < 2.71 | < 2.71 | 
55 | CC(=O)NS(=O)(=O)c1ccc(NC(=O)c2ccccc2SC(=O)CCCC[n+]2ccccc2)cc1 | 5.75 | < 3.70 | 
56 | Cc1cn(C2CC(O[Si](C)(C)C(C)(C)C)C(C/[N+]([O-])=N\Nc3ccc([N+](=O)[O-])cc3)O2)c(=O)[nH]c1=O (stereo not given) | < 3.70 | 5.48 | 
57 | O=c1[nH]c2ccc(CC(=S)N3CCOCC3)cc2o1 | < 3.70 | < 3.70 | 
58 | COc1c2c(c3ccccc3c1O)C1C=CC2C1 (stereo not given) | < 3.96 | 5.00 | 
59 | O=[N+]([O-])c1cccc(-c2oc(C=Nc3ccccc3)c([N+](=O)[O-])c2-c2cccc([N+](=O)[O-])c2)c1 | < 4.25 | < 4.25 | 
60 | C[C@]12CCC3C(CC[C@H]4C/C(=C/C#N)CC[C@]34C)C1CC/C2=C\C#N (stereo not given in full) | < 4.00 | 4.59 | 
61 | N=C(N)c1ccc(C(NC(=O)CNS(=O)(=O)c2ccc3ccccc3c2)P(=O)(Oc2ccccc2)Oc2ccccc2)cc1 (stereo not given) | 6.13 | 5.15 | 
62 | C[C@@H]1OC2(O)[C@H]3CCCN3S(=O)(=O)CCN2C1=O (stereo not given in full) | < 3.04 | < 3.04 | 
63 | Cc1ccc2c(c1)NC(=O)CC(c1ccccc1)=N2 | < 3.70 | 3.94 | 

Row | Structure (SMILES) | pEC50 | pIC50 | outcome
64 | COc1ccccc1NC1=NCC(C)S1 (stereo not given) | < 3.70 | < 3.70 | 
65 | CC1C(C#N)(C#N)C(C#N)=C(N)C1(Cl)[N+](=O)[O-] (stereo not given) | < 3.70 | 5.43 | 
66 | CC(=O)OC1C(OC(C)=O)[C@@]2(C)C(C(OC(C)=O)[C@@H]3C2C(C)C=C2OC(=O)[C@@](C)(O)[C@@]23C)[C@H]2C1[C@]1(C)C(C[C@@H]3O[C@@H]3C1OC(C)=O)C(=O)[C@@H]2O (stereo not given in full) |  |  | inactive
67 | COc1ccc(-c2nc(N3CCCC3)no2)cc1 | < 3.70 | 3.71 | 
68 | OCC1OC2c3ccccc3COC2C1OCc1ccccc1 (stereo not given) |  |  | inactive
69 | COc1cc(C(C#N)NNC(=O)Cc2ccccc2)cc(OC)c1OC (stereo not given) | < 3.72 | 4.03 | 
70 | Fc1ccc2nncc(SCc3ccccc3)c2c1 | < 3.88 | 4.71 | 
71 | O=C(Nc1ccc(Cl)cc1)NS(=O)(=O)c1coc2ccccc2c1=O | < 3.70 | 4.03 | 
72 | c1ccc2c(c1)CC1COc3ccccc3C1O2 (stereo not given) | < 3.70 | 4.15 | 
73 | Cc1cccc(C=NC23CC4CC(CC(C4)C2)C3)c1 | < 3.99 | < 3.99 | 
74 | O=C1NC2(CCN(CCCC3(c4ccc(F)cc4)OCCO3)CC2)Oc2ccccc21 | < 4.00 | < 4.00 | 
75 | S=c1nc[nH]c2c1ccc1[nH]cnc12 | < 4.73 | < 4.73 | 
76 | CC(NC(=O)OC(C)(C)C)C(=O)NC(Cc1ccccc1)C(=O)NCC(=O)O (stereo not drawn) (Boc-Ala-Phe-Gly-OH; configuration not given here) | < 3.70 | < 3.70 | 
77 | CCSC(=O)n1nc(Cl)c2cc([N+](=O)[O-])ccc21 | < 3.70 | < 3.70 | 
78 | S=c1s[nH]c2c1CCC2 | < 3.97 | 4.11 | 
79 | C[C@H](NC(=O)c1ccccc1SC(=O)NCCCCl)C(N)=O | 5.44 | 4.35 | 
80 | NC(=O)C(N)c1ccccc1 (stereo not given) | < 3.70 | < 3.70 | 
81 | CC1=CC(=O)/C(=C/N2C(=O)/C(=C\c3cccc(O)c3)SC2=S)C(=O)O1 | < 3.70 | 4.26 | 
82 | CC(=O)NC(CS)C(=O)NC(CO)C(=O)NC(CO)C(=O)NC(Cc1c[nH]c2ccccc12)C(=O)N1CCCC1C(=O)NC(CO)C(=O)NC(Cc1c[nH]c2ccccc12)C(=O)NC(Cc1c[nH]cn1)C(=O)NC(CO)C(=O)NC(Cc1c[nH]c2ccccc12)C(=O)NCC(=O)NCC(=O)NC(CC(=O)O)C(=O)NC(CCC(N)=O)C(=O)NC(CCCCN)C(=O)NC(Cc1ccccc1)C(=O)NC(CCCNC(=N)N)C(=O)NC(CCCCN)C(N)=O (stereo not given) (Ac-CSSWPSWHSWGGDQKFRK-NH2; configuration not given here) | < 4.70 | < 4.70 | 
83 | CO[C@@]12[C@@H]3N[C@@H]3CN1C1=C(C(=O)C(N3CCOCC3)=C(C)C1=O)[C@@H]2COC(N)=O | < 3.70 | < 3.70 | 
84 | O=C1NC(Cc2ccc(Cl)cc2)C(=O)N2CCCC12 (stereo not given) | < 3.70 | 4.02 | 
